In ChEMBL document CHEMBL5634144, “Design, synthesis and biological evaluation of novel DCLK1 inhibitor containing purine skeleton for the treatment of pancreatic cancer” (Eur J Med Chem, 2023):

Target: T1, Serine/threonine-protein kinase DCLK1 (Homo sapiens, UniProt O15075)
T1 sequence (O15075 whole entry): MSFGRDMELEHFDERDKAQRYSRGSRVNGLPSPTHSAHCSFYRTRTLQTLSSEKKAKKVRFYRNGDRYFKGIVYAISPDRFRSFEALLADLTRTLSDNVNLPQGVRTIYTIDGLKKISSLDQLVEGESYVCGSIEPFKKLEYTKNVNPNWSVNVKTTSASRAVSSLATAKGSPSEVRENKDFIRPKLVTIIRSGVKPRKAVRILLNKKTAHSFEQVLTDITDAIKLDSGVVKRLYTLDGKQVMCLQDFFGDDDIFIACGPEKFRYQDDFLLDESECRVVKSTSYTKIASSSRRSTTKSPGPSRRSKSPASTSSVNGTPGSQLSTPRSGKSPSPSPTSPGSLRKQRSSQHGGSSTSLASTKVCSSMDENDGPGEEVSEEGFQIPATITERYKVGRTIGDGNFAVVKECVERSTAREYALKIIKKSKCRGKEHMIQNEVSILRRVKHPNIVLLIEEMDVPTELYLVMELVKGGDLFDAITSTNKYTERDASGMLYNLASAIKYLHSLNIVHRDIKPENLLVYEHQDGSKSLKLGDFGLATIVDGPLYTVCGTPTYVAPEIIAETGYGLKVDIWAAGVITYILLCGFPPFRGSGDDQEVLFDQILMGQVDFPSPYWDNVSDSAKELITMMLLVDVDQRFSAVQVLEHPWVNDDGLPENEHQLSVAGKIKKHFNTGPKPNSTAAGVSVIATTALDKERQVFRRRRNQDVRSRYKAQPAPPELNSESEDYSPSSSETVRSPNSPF
Experiment: Inhibition of DCLK1 (unknown origin) preincubated for 10 mins followed by substrate/ATP addition measured after 60 mins by mobility shift assay

IC50: 171 nM
Compound: COc1ccccc1Nc1nc(Nc2ccccc2S(=O)(=O)C(C)C)c2nc[nH]c2n1
